The target in this assay is T1, Dimer of Gag-Pol polyprotein [501-599] (Human immunodeficiency virus 1, UniProt P03367).
T1 construct: 501-599
In words: Protease Inhibition Assay. The settings on record: pH 5.5; 30 °C. On the procedure: All enzyme assays were performed under initial velocity and steady-state conditions. The conditions for the enzyme catalyzed hydrolysis of the cleavage site peptide VSQN-(beta-naphthylalanine)-PIV were established with respect to time and enzyme concentration to yield linear initial velocity data. […] The detection of product was monitored with fluorescence (excitation 270 nm, emission 330 nm).
In turn, `O=C(N[C@@H](Cc1ccccc1)[C@@H](O)C[C@]1(Cc2ccccc2)N=CC(C2c3ccccc3C[C@H]2O)C1=O)O[C@H]1CCOC1` (stereo partly drawn) [(3S)-oxolan-3-yl N-[(2S,3S)-4-[(2S)-2-benzyl-4-[(2R)-2-hydroxy-2,3-dihydro-1H-inden-1-yl]-3-oxo-2,3-dihydro-1H-pyrrol-2-yl]-3-hydroxy-1-phenylbutan-2-yl]carbamate] showed an IC50 of 2 nM.

As for `O=C(N[C@@H](Cc1ccccc1)[C@@H](O)C[C@@H](Cc1ccccc1)C(=O)NC1c2ccccc2C[C@H]1O)O[C@H]1CCOC1` (stereo partly drawn) [(3S)-oxolan-3-yl N-[(2S,3S,5R)-5-benzyl-3-hydroxy-5-{[(2R)-2-hydroxy-2,3-dihydro-1H-inden-1-yl]carbamoyl}-1-phenylpentan-2-yl]carbamate], inhibition was half-maximal at 0.03 nM (IC50).

Compound `CC(C)C[C@H](NC(=O)[C@H](Cc1ccccc1)C[C@H](O)[C@H](Cc1ccccc1)NC(=O)OC(C)(C)C)C(=O)N[C@@H](Cc1ccccc1)C(N)=O` [Hydroxyethylene dipeptide isostere] returned an IC50 of 0.6 nM.

`CC(C)C[C@@]1(C2C=N[C@@](Cc3ccccc3)(C[C@H](O)[C@H](Cc3ccccc3)NC(=O)OC(C)(C)C)C2=O)N=CC([C@@H](Cc2ccccc2)C(N)=O)C1=O` (some centres not stated) [Pyrrolinone deriv. 1]: the IC50 was found to be 10 nM.

For `CC(C)C[C@@]1(C2C=N[C@@](Cc3ccccc3)(C[C@H](O)[C@H](Cc3ccccc3)NC(=O)O[C@H]3CCOC3)C2=O)N=CC([C@@H](Cc2ccccc2)C(N)=O)C1=O` (some centres not stated) [Pyrrolinone deriv. 2], the IC50 amounted to 1.3 nM.

`CC(C)(C)OC(=O)N[C@@H](Cc1ccccc1)[C@@H](O)C[C@]1(Cc2ccccc2)N=CC(C2c3ccccc3C[C@H]2O)C1=O` (some centres not stated) [Pyrrolinone deriv. 6] came in with an IC50 of 11.9 nM.

In turn, `CC(C)(C)OC(=O)N[C@@H](Cc1ccccc1)[C@@H](O)C[C@@H](Cc1ccccc1)C(=O)NC1c2ccccc2C[C@H]1O` (stereo partly drawn) [tert-butyl N-[(2S,3S,5R)-5-benzyl-3-hydroxy-5-{[(2R)-2-hydroxy-2,3-dihydro-1H-inden-1-yl]carbamoyl}-1-phenylpentan-2-yl]carbamate] displayed an IC50 of 0.3 nM.

Values taken from BindingDB's records for doi:10.1021/jm0204587 (University of Pennsylvania, 2003).
